These results are taken from patent publication US4200628A, “Novel aminoglycoside derivatives” (Shionogi & Co., Ltd., priority 1977, dated 1980).

Structures are written as SMILES. ≈ marks a conversion by molar mass, not a printed value.

What all share (experiment): MIC, antimicrobial activity
Holding throughout (type): cell-based

Assay [1] relates to Pseudomonas aeriginosa TB-151. Conditions: for Minimum Inhibitory Concentration (MIC): Pseudomonas aeriginosa TB-151, tobramycin resistant strain; for MIC: Pseudomonas, TB151, read-out: Minimum Inhibitory Concentration (MIC), Pseudomonas aeriginosa TB-151, tobramycin resistant strain.
Assay [2] deals with Pseudomonas aeruginosa TB-121. Conditions: for Minimum Inhibitory Concentration (MIC): Pseudomonas aeruginosa TB-121, tobramycin resistant strain; for MIC: Pseudomonas aeruginosa, TB121, Pseudomonas aeruginosa TB-121, tobramycin resistant strain, read-out: Minimum Inhibitory Concentration (MIC).
Assay [3] deals with Staphylococcus epidermidis TB-775. Conditions: for MIC: Staphylococcus epidermidis, TB775, Staphylococcus epidermidis TB-775, tobramycin resistant strain, read-out: Minimum Inhibitory Concentration (MIC); for Minimum Inhibitory Concentration (MIC): Staphylococcus epidermidis TB-775, tobramycin resistant strain.
For assay [4], the system named is Proteus vulgaris TB-615. Conditions: for Minimum Inhibitory Concentration (MIC): Proteus vulgaris TB-615, tobramycin resistant strain; for MIC: Proteus vulgaris, TB615, Proteus vulgaris TB-615, tobramycin resistant strain, read-out: Minimum Inhibitory Concentration (MIC).

In the case of `NC[C@H]1O[C@H](O[C@H]2[C@H](O)[C@@H](O[C@H]3O[C@H](CO)[C@@H](O)[C@H](N)[C@H]3O)[C@H](NC(=O)C(O)C3CNCCN3)C[C@@H]2N)[C@H](N)C[C@@H]1O` (single isomer, unassigned) [(8), 1-N-[2-hydroxy-2-(piperazin-2-yl)acetyl]tobramycin], the “Minimum Inhibitory Concentration (MIC)” value in assay [1] came to 6.2 µg/mL; in assay [2] it was 6.2 µg/mL; in assay [4], 12.5 µg/mL. Besides, the MIC in assay [3] came to 25 µg/mL (≈ 41 µM).

As for `NC[C@H]1O[C@H](O[C@H]2[C@H](O)[C@@H](O[C@H]3O[C@H](CO)[C@@H](O)[C@H](N)[C@H]3O)[C@H](NC(=O)C(O)C3CNCCN3)C[C@@H]2N)[C@H](N)C[C@@H]1O` (single isomer, unassigned) [(9), 1-N-[2-hydroxy-2-(piperazin-2-yl)acetyl]tobramycin], the “Minimum Inhibitory Concentration (MIC)” value stood at 25.0 µg/mL in assay [1], 12.5 µg/mL in assay [2], 50.0 µg/mL in assay [3] and 50.0 µg/mL in assay [4].

Consider `NC[C@H]1O[C@H](O[C@H]2[C@H](O)[C@@H](O[C@H]3O[C@H](CO)[C@@H](O)[C@H](N)[C@H]3O)[C@H](NC(=O)C(O)C3CCNC3)C[C@@H]2N)[C@H](N)C[C@@H]1O` (some centres unmarked) [(1), 1-N-[2-hydroxy-2-(pyrrolidin-3-yl)acetyl]tobramycin], for which the MIC in assay [1] was 6.2 µg/mL (≈ 10.4 µM); in assay [2], 6.2 µg/mL (≈ 10.4 µM); in assay [3] it was 6.2 µg/mL (≈ 10.4 µM); in assay [4], 12.5 µg/mL (≈ 21 µM).

For the compound `NC[C@H]1O[C@H](O[C@H]2[C@H](O)[C@@H](O[C@H]3O[C@H](CO)[C@@H](O)[C@H](N)[C@H]3O)[C@H](NC(=O)C(O)C3CCN3)C[C@@H]2N)[C@H](N)C[C@@H]1O` (some centres unmarked) [(2), 1-N-[2-hydroxy-2-(azetidin-2-yl)acetyl]tobramycin], the MIC in assay [1] was 12.5 µg/mL (≈ 21.5 µM); in assay [2] it was 12.5 µg/mL (≈ 21.5 µM); in assay [3], 100 µg/mL (≈ 172 µM); in assay [4], greater than 100 µg/mL.

Regarding `NC[C@H]1O[C@H](O[C@H]2[C@H](O)[C@@H](O[C@H]3O[C@H](CO)[C@@H](O)[C@H](N)[C@H]3O)[C@H](NC(=O)C(O)C3CNC3)C[C@@H]2N)[C@H](N)C[C@@H]1O` (some centres unmarked) [(3), 1-N-[2-hydroxy-2-(azetidin-3-yl)acetyl]tobramycin], the MIC in assay [1] was determined as 3.1 µg/mL (≈ 5.34 µM); in assay [2], 3.1 µg/mL (≈ 5.34 µM); in assay [3], 6.2 µg/mL (≈ 10.7 µM); in assay [4], 12.5 µg/mL (≈ 21.5 µM).

Turning to `NC[C@H]1O[C@H](O[C@H]2[C@H](O)[C@@H](O[C@H]3O[C@H](CO)[C@@H](O)[C@H](N)[C@H]3O)[C@H](NC(=O)C(O)C3CCCNC3)C[C@@H]2N)[C@H](N)C[C@@H]1O` (some centres unmarked) [(4), 1-N-[2-hydroxy-2-(piperidin-3-yl)acetyl]tobramycin], the MIC in assay [1], in assay [2], in assay [3] and in assay [4] was 25 µg/mL (≈ 41.1 µM) in each case.

Regarding `NC[C@H]1O[C@H](O[C@H]2[C@H](O)[C@@H](O[C@H]3O[C@H](CO)[C@@H](O)[C@H](N)[C@H]3O)[C@H](NC(=O)C(O)C3CCCN3)C[C@@H]2N)[C@H](N)C[C@@H]1O` (some centres unmarked) [(5), 1-N-[2-hydroxy-2-(pyrrolidin-2-yl)acetyl]tobramycin], the figures for the “Minimum Inhibitory Concentration (MIC)” value in assay [1], in assay [2] and in assay [4] were 100.0 µg/mL, 25.0 µg/mL and 100.0 µg/mL, respectively. Besides, in assay [3], the MIC turned out to be 100 µg/mL (≈ 168 µM).

In the case of `NC[C@H]1O[C@H](O[C@H]2[C@H](O)[C@@H](O[C@H]3O[C@H](CO)[C@@H](O)[C@H](N)[C@H]3O)[C@H](NC(=O)C(O)C3CCCN3)C[C@@H]2N)[C@H](N)C[C@@H]1O` (some centres unmarked) [(6), 1-N-[2-hydroxy-2-(pyrrolidin-2-yl)acetyl]tobramycin], the “Minimum Inhibitory Concentration (MIC)” value came out at 12.5 µg/mL in assay [1], 6.2 µg/mL in assay [2], 50.0 µg/mL in assay [3] and 25.0 µg/mL in assay [4].

With `NC[C@H]1O[C@H](O[C@H]2[C@H](O)[C@@H](O[C@H]3O[C@H](CO)[C@@H](O)[C@H](N)[C@H]3O)[C@H](NC(=O)C(O)C3CCCN3)C[C@@H]2N)[C@H](N)C[C@@H]1O` (some centres unmarked) [(7), 1-N-[2-hydroxy-2-(pyrrolidin-2-yl)acetyl]tobramycin], the “Minimum Inhibitory Concentration (MIC)” value in assay [1] is 50.0 µg/mL; in assay [2] it was 100.0 µg/mL; in assay [3] it was greater than 100.0 µg/mL; in assay [4] it was greater than 100.0 µg/mL.

For the compound `NC[C@H]1O[C@H](O[C@H]2[C@H](O)[C@@H](O[C@H]3O[C@H](CO)[C@@H](O)[C@H](N)[C@H]3O)[C@H](N)C[C@@H]2N)[C@H](N)C[C@@H]1O` [TOB, tobramycin, reference compound], the MIC is 100 µg/mL (≈ 214 µM) in assay [1] and 25 µg/mL (≈ 53.5 µM) in assay [4].
